# Results: BindingDB's records for PubMed 6123593 (Eli Lilly, 1982)
# Columns and labels:
# [1] = target: T1, Alpha-2C adrenergic receptor (Rattus norvegicus, UniProt P22086)
# T1 sequence (P22086 whole entry): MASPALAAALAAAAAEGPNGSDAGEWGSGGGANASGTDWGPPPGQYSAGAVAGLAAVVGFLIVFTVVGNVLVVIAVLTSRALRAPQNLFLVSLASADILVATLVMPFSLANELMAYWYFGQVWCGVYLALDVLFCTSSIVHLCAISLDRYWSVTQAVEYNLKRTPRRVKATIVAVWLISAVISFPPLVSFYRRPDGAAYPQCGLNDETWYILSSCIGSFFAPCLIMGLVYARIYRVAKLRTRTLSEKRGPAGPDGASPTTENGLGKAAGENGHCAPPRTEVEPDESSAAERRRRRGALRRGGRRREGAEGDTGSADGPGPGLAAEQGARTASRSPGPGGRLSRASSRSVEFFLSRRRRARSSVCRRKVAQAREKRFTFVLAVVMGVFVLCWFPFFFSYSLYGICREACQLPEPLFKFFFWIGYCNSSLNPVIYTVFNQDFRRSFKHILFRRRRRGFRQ
# [2] = target: Histamine H1 receptor (Rattus norvegicus, UniProt P31390)
# Chain of Histamine H1 receptor (P31390 whole entry): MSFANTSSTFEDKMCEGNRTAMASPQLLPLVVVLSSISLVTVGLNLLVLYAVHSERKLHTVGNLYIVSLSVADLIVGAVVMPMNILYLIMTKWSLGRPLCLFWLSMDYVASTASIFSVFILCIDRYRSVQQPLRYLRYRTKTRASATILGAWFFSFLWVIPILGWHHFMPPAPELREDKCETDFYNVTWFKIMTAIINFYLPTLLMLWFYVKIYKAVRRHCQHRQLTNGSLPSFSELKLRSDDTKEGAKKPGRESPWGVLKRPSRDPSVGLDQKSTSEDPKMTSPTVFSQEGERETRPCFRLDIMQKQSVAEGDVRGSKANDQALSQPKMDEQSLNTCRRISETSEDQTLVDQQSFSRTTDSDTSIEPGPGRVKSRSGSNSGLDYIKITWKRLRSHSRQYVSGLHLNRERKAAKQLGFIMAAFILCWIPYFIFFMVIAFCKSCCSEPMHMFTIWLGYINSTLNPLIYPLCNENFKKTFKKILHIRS
# [3] = target: T2, Muscarinic acetylcholine receptor M2 (Rattus norvegicus, UniProt P10980)
# T2 sequence (P10980 whole entry): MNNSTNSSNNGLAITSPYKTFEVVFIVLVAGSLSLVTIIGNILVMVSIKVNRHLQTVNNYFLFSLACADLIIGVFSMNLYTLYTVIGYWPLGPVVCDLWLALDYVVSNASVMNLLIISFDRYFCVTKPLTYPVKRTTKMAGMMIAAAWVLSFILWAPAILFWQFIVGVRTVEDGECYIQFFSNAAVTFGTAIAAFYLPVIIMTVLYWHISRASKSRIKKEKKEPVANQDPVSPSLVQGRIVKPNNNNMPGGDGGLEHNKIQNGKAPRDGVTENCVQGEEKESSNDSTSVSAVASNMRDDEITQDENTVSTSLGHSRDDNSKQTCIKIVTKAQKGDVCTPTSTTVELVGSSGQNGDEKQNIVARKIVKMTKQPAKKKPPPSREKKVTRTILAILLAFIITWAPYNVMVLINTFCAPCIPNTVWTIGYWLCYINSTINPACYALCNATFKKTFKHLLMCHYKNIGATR
SMILES,Ki [1] [µM],Ki [2] [nM],Ki [3] [nM]
CN(C)C[C@@H]1C2CCC(CC2)[C@@H]1c1ccc(Cl)c(Cl)c1 [CAS_62373-97-1],> 10,2000,–
"CN1Cc2c(N)cccc2[C@H](c2ccccc2)C1 [(+/-)-2-Methyl-4-phenyl-1,2,3,4-tetrahydro-isoquinolin-8-ylamine]",6.1,> 10000,–
CNCCC(Oc1ccccc1C)c1ccccc1 (configuration not stated) [Methyl-(3-phenyl-3-o-tolyloxy-propyl)-amine(tomoxetine)],> 10,6400,> 10000

# Now from value to molecule:
Ki [1] [µM],Ki [2] [nM],Ki [3] [nM],SMILES
9.2,–,600,CNCCCN1c2ccccc2CCc2ccccc21 [Desmethylimipramine]
4.6,31,320,CN(C)CCCN1c2ccccc2CCc2ccccc21
